Source: patent US7311892B2, “Multidrug multiligand conjugates for targeted drug delivery” (priority 2001, dated 2007)

Tests used:
[1] = tested on: NCI-H1299 non-small cell lung cancer cells; assay: Cell proliferation assay; type: cell-based; details: Homo sapiens, 50 nM, 3 hours exposure, then drug-free medium, cells counted after 96 hours, normalized to untreated cells, quadruplicate, read-out: growth inhibition
Procedure: Cells were grown as described in Example 2 and exposed to various treatments. The cells were left untreated or treated with 50 nM of the PTX-BBN[7-13]-BTN-SaV conjugate, unconjugated paclitaxel (PTX), the biotin/streptavidin complex (BTN/SaV) or a mixture of BTN/SaV and PTX. After 3 hours, the media containing these additives was removed and replaced with fresh media. After 96 hours, the cells were removed from the 24 well plates by treatment with trypsin/EDTA and counted with a Coulter particle counter. All treatments were done in quadruplicate and the cell counts were normalized to the untreated cells.
To evaluate the growth inhibitory effects of the PTX-BBN[7-13]-BTN/SaV conjugate, experiments were designed to compare the effect of the conjugate with the unconjugated paclitaxel, the BTN/SaV complex and a mixture of free PTX and the BTN/SaV complex (FIG. 5).
The HI299 cells were plated in 24 well plates at a density of 10,000 cells/well and allowed to adhere for 24 hours. The cells were treated with 50 nM of the following: 1) no treatment (Untreated); 2) unconjugated paclitaxel(PTX); 3) biotin/streptavidin complex (BTN/SaV); 4) a mixture of BTN/SaV and PTX; and 5) the PTX-BBN[7-13]-BTN/SaV conjugate (Conjugate) described in FIG. 1A. […] After 96 hours, the cells were removed from the 24 well plates by treatment with trypsin/EDTA and counted with a Coulter particle counter. […]

[2] = tested on: NCI-H1299 non-small cell lung cancer cells; assay: Apoptosis induction assay (Annexin V-FITC, flow cytometry); type: cell-based; details: 50 nM, 3 hours exposure, then drug-free medium; analysed after 96 hours; triplicate
Procedure: Apoptosis was measured by an Annexin V-FITC kit. […] 2.3%, 2.5% and 2.4% induction for untreated cells, free PTX, the BTN/SaV complex and the BTN/SaV+PTX controls, respectively.
FIG. 6 illustrates the results of an apoptosis induction assay, illustrating NCI-HI299 cells are induced to undergo apoptosis specifically in response to the PTX-BBN[7-13]-BTN-SaV conjugate. Cells were grown as described above and in Example 3 and left untreated or treated with 50 nM of the PTX-BBN[7-13]-BTN-SaV conjugate, unconjugated paclitaxel (PTX), the biotin/streptavidin complex (BTN/SaV) or a mixture of BTN/SaV and PTX. After 3 hours, the media containing these additives was removed and replaced with fresh media. After 96 hours, the cells were removed from the 24 well plates by treatment with trypsin/EDTA and analyzed for Annexin V by flow cytometry using an Annexin V-FITC kit (Biovision, Palo Alto, Calif.). All treatments were done in triplicate and presented as the percentage of cells staining with Annexin V-FITC. […]
The HI299 cells were plated in 24 well plates at a density of 10,000 cells/well and allowed to adhere for 24 hours. […] After 96 hours, the cells were removed from the 24 well plates by treatment with trypsin/EDTA and analyzed for Annexin V by flow cytometry using an Annexin V-FITC kit (Biovision, Palo Alto, Calif.). […]

SMILES: CC(=O)O[C@H]1C(=O)[C@@]2(C)[C@H]([C@H](OC(=O)c3ccccc3)[C@]3(O)C[C@H](OC(=O)[C@H](O)[C@@H](NC(=O)c4ccccc4)c4ccccc4)C(C)=C1C3(C)C)[C@]1(OC(C)=O)CO[C@@H]1C[C@@H]2O [free PTX, paclitaxel]
- inhibition at 0.05 µM [1]: 0%
- induction of apoptosis (percentage of cells staining with Annexin V-FITC) [2]: ~2.3%
